From ChEMBL document CHEMBL3600283, “Enthalpic Forces Correlate with the Selectivity of Transthyretin-Stabilizing Ligands in Human Plasma” (J Med Chem, 2015) come the findings set out here.

The Kd is a measure of binding affinity in units of concentration. Read a low Kd as a tighter complex. A word on the IC50: it is the midpoint of a concentration-inhibition curve. Usually half-life stands for how long it takes for the measured level to halve.

In data set [1] the target is T1, Transthyretin (Homo sapiens, UniProt P02766). Description: Binding affinity to TTR (unknown origin) by isothermal titration calorimetric analysis. A general note: Isothermal titration calorimetry measures the heat released or taken up as one component is titrated into another.
For data set [2], the target named is T1, Transthyretin. Description: Binding affinity to TTR in human plasma assessed as protein stabilization preincubated for 1 hr followed by urea-mediated denaturation by Western blot analysis.
A short description of data set [3]: Half life in plasma (unknown origin). In kind it is ADME, cell-free.

For the compound `O=C(O)COC(=O)Cc1ccccc1Nc1c(Cl)cccc1Cl` [ACECLOFENAC], the affinity at Transthyretin [1], expressed as Kd, was 1.2 µM. In addition, on Transthyretin [2] (read-out: IC50), the half-maximal inhibitory concentration (IC50) amounted to 170 µM.

The compound `O=c1cc(-c2ccc(O)cc2)oc2cc(O)cc(O)c12` [APIGENIN] registered a Kd on Transthyretin [1] of 0.25 µM. In addition, on Transthyretin [2], the IC50 turned out to be 18 µM.

On Transthyretin [1], `O=C(O)Cc1ccccc1Nc1c(Cl)cccc1Cl` [DICLOFENAC] displayed a Kd of 1 µM. Moreover, at Transthyretin [2] (read-out: IC50), the IC50 was found to be 140 µM.

With `Cc1ccc(C)c(OCCCC(C)(C)C(=O)O)c1` [GEMFIBROZIL], the affinity on Transthyretin [1], expressed as Kd, was 0.1 µM. Further, at Transthyretin [2] (read-out: IC50), the IC50 worked out at 180 µM. Moreover, in data set [3], the half-life was 1.5 h.

The compound `O=c1cc(-c2ccc(O)c(O)c2)oc2cc(O)cc(O)c12` [LUTEOLIN] gave a dissociation constant (Kd) on Transthyretin [1] of 0.07 µM. For the same compound, the IC50 on Transthyretin [2] (read-out: IC50) is 7 µM.

In the case of `Cc1ccc(Cl)c(Nc2ccccc2C(=O)O)c1Cl` [MECLOFENAMIC ACID], binding at Transthyretin [1] was characterised by a dissociation constant (Kd) of 0.48 µM. For the same compound, on Transthyretin [2] (read-out: IC50), the IC50 was 50 µM.

As for `Cc1c(Cl)cccc1Nc1ccccc1C(=O)O` [TOLFENAMIC ACID], the Kd on Transthyretin [1] was determined as 0.15 µM. In addition, the IC50 at Transthyretin [2] (read-out: IC50) worked out at 40 µM.
